Biological target: MetAP-2 (Homo sapiens, UniProt P50579)
Test: MetAP-2 activity measurement (coupled enzymatic reactions, Met-Arg-Ser substrate, dianisidine detection at 450 nm)
Type: biochemical
Conditions: Inhibition of MetAP-2; read-out: IC50 enzyme
Outline: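 Coupled continuous assay with Met-Arg-Ser tripeptide substrate: released methionine oxidised by L-amino acid oxidase to give H2O2, which peroxidase uses to oxidise dianisidine, followed at 450 nm. Activity taken as slope of absorbance versus time over the visually linear region; dianisidine extinction coefficient converts to mol Met per time.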

MetAP-2, sequence (P50579 whole entry, species assumed): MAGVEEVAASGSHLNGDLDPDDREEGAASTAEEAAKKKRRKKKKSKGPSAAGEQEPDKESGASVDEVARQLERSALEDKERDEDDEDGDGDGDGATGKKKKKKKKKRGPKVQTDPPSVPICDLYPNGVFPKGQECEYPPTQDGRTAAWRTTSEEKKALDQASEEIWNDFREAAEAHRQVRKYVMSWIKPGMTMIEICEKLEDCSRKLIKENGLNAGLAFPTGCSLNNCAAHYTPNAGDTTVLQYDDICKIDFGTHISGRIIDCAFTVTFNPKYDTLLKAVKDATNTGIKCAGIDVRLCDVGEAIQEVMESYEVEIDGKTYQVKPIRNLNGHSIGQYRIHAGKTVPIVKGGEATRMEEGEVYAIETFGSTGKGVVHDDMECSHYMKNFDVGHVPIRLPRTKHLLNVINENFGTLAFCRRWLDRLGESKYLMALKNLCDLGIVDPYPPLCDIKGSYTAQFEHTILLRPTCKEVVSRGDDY

Compound | IC50 [nM]
CN1CCN(C(=O)c2cc3cc(N4CC[C@](O)(C(=O)NCc5cc(F)cc(Cl)c5)C4=O)ccc3[nH]2)CC1 [B122, N-(3-Chloro-5-fluorobenzyl)-(S)-3-hydroxy-1-[2-(4-methyl-piperazin-1-carbonyl)-1H-indol-5-yl]-2-oxopyrrolidine-3-carboxamide] | 10 to 1000
CC(C)(C)OC(=O)N1CCN(C(=O)c2cc3cc(N4CC[C@](O)(C(=O)NCc5cc(F)cc(Cl)c5)C4=O)ccc3[nH]2)CC1 [B123, tert-Butyl 4-{5-[(S)-3-(3-chloro-5-fluorobenzylcarbamoyl)-3-hydroxy-2-oxopyrrolidin-1-yl]-1H-indol-2-carbonyl}-piperazine-1-carboxylate] | 10 to 1000
O=C1CCc2c(ccc(N3CCC(O)(C(=O)NCc4cc(F)cc(Cl)c4)C3=O)c2F)N1 (stereo not drawn) [B124, N-(3-Chloro-5-fluorobenzyl)-1-(5-fluoro-2-oxo-1,2,3,4-tetrahydroquinolin-6-yl)-3-hydroxy-2-oxopyrrolidine-3-carboxamide] | 10 to 1000
O=C(c1cc2cc(N3CC[C@](O)(C(=O)NCc4cc(F)cc(Cl)c4)C3=O)ccc2[nH]1)N1CCNCC1 [B126, N-(3-Chloro-5-fluorobenzyl)-(S)-3-hydroxy-2-oxo-1-[2-(piperazin-1-carbonyl)-1H-indol-5-yl]-pyrrolidine-3-carboxamide] | 10 to 1000
Nc1ccccc1NC(=O)c1cc2cc(N3CC[C@](O)(C(=O)NCc4cc(F)cc(Cl)c4)C3=O)ccc2[nH]1 [B129, N-(2-Aminophenyl)-5-[(S)-3-(3-chloro-5-fluorobenzyl-carbamoyl)-3-hydroxy-2-oxo-pyrrolidin-1-yl]-1H-indole-2-carboxamide] | 10 to 1000
NCCNC(=O)c1cc2cc(N3CC[C@](O)(C(=O)NCc4cc(F)cc(Cl)c4)C3=O)ccc2[nH]1 [B132, N-(2-Aminoethyl)-5-[(S)-3-(3-chloro-5-fluorobenzyl-carbamoyl)-3-hydroxy-2-oxo-pyrrolidin-1-yl]-1H-indole-2-carboxamide] | 10 to 1000
O=C(NCc1cc(F)cc(Cl)c1)[C@@]1(O)CCN(c2ccc3[nH]c(-c4nc5ccccc5[nH]4)cc3c2)C1=O [B133, N-(3-Chloro-5-fluorobenzyl)-(S)-1-[2-(1H-benzoimidazol-2-yl)-1H-indol-5-yl]-3-hydroxy-2-oxo-pyrrolidine-3-carboxamide] | 10 to 1000
NNC(=O)c1cc2cc(N3CC[C@](O)(C(=O)NCc4cc(F)cc(Cl)c4)C3=O)ccc2[nH]1 [B134, N-(3-Chloro-5-fluorobenzyl)-(S)-1-(2-hydrazinocarbonyl-1H-indol-5-yl)-3-hydroxy-2-oxo-pyrrolidine-3-carboxamide] | 10 to 1000
Cc1noc(-c2cc3cc(N4CC[C@](O)(C(=O)NCc5cc(F)cc(Cl)c5)C4=O)ccc3[nH]2)n1 [B135, N-(3-Chloro-5-fluorobenzyl)-(S)-3-hydroxy-1-[2-(3-methyl-1,2,4-oxadiazol-5-yl)-1H-indol-5-yl]-2-oxopyrrolidine-3-carboxamide] | 10 to 1000
O=C(NCc1cc(F)cc(Cl)c1)[C@@]1(O)CCN(OCc2ccccc2)C1=O [B136, N-(3-Chloro-5-fluorobenzyl)-(S)-1-benzyloxy-3-hydroxy-2-oxo-pyrrolidine-3-carboxamide] | 10 to 1000
O=C(NCc1cc(F)cc(Cl)c1)[C@]1(O)CCN(OCc2ccccc2)C1=O [B138, N-(3-Chloro-5-fluorobenzyl)-(R)-1-benzyloxy-3-hydroxy-2-oxo-pyrrolidine-3-carboxamide] | > 10000
O=C(NCc1cc(F)cc(Cl)c1)[C@@]1(O)CCN(c2cnc3[nH]cc(C(F)(F)F)c3c2)C1=O [B139, N-(3-Chloro-5-fluorobenzyl)-(S)-3-hydroxy-2-oxo-1-(3-trifluoro-methyl-1H-pyrrolo[2,3-b]pyridin-5-yl)pyrrolidine-3-carboxamide] | 10 to 1000
O=C(NCc1cc(F)cc(Cl)c1)[C@]1(O)CCN(c2cnc3[nH]cc(C(F)(F)F)c3c2)C1=O [B140, N-(3-Chloro-5-fluorobenzyl)-(R)-3-hydroxy-2-oxo-1-(3-trifluoromethyl-1H-pyrrolo-[2,3-b]pyridin-5-yl)pyrrolidine-3-carboxamide] | > 10000
CNS(=O)(=O)c1ccc(N2CC[C@](O)(C(=O)NCc3cc(F)cc(Cl)c3)C2=O)cc1 [B141, N-(3-Chloro-5-fluorobenzyl)-(S)-3-hydroxy-1-(4-methylsulfamoyl-phenyl)-2-oxopyrrolidine-3-carboxamide] | 10 to 1000
(S)-3-(1,1-Dioxo-1l6- thiomorpholine-4-carbonyl)-3- hydroxy-1-phenylpyrrolidin-2-one [A56] | > 10000

— patent US10093623B2, “Cyclic amides as MetAP-2 inhibitors” (MERCK PATENT GmbH, priority 2012, dated 2018)
